Measurements published in ChEMBL document CHEMBL4673189, “Recent progress in the discovery of ghrelin O-acyltransferase (GOAT) inhibitors” (RSC Med Chem, 2020).
Non-standard residues stand in square brackets, D forms with d. Residues, ends and D or L forms follow the SMILES beside them. *: point of attachment. Octanoyl = CCCCCCCC(=O)*; X1 = CC(C)C[C@@H](CN)N*; Dap = NC[C@H](N)C(=O)O

Key:
[1] = molecular target: T1, Membrane-bound ghrelin O-acyltransferase MBOAT4 (Mus musculus, UniProt P0C7A3); assay: Inhibition of N-terminal His10-tagged mouse GOAT expressed in baculovirus infected sf9 insect cell membrane using proghrelin-His8 and [3H]octanoyl CoA as substrate by scintillation counting method; assay type: cell membranes
T1 sequence (P0C7A3 whole entry): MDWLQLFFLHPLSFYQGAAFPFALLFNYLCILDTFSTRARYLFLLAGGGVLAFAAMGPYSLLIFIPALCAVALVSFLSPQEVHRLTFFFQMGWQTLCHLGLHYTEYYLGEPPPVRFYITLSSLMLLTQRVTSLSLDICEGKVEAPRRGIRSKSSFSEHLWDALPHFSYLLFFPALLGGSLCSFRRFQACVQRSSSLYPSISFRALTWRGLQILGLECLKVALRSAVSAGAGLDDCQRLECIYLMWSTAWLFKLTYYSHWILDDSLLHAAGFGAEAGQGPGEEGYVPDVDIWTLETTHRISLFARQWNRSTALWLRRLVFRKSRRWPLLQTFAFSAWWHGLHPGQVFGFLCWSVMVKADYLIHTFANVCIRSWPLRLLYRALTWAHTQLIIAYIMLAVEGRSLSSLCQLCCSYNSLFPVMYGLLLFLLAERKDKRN

[2] = In vivo inhibition of GOAT in C57BL/6 mouse assessed as reduction in ratio of AG to total-ghrelin at 18 mg/kg, po BID administered via gavage for 3 days by ELISA relative to control; assay type: functional; conditions: C57BL/6, po, 72 h, time 3 day
[3] = molecular target: T2, Membrane-bound ghrelin O-acyltransferase MBOAT4 (Homo sapiens, UniProt Q96T53); assay: Inhibition of human His-tagged GOAT expressed in baculovirus infected Sf9 cell membrane using desacyl-ghrelin-biotin and octanoyl-CoA as substrate incubated for 1 hr by ELISA; assay type: cell membranes
T2 sequence (Q96T53 whole entry): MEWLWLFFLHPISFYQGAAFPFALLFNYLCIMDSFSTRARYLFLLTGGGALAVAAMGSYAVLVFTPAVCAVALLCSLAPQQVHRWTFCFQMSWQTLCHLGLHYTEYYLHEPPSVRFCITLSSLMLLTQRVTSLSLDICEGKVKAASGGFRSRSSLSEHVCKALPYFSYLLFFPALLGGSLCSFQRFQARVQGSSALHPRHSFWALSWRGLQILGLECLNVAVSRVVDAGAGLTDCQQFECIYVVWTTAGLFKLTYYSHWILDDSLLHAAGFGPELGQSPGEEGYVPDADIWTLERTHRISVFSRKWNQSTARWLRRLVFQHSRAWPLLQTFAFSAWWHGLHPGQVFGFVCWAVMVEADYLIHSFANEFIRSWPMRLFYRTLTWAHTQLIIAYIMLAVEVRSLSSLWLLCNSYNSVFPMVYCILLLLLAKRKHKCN

[4] = In vivo inhibition of GOAT in C57BL/6 mouse assessed as reduction in ratio of AG to total-ghrelin at 1 mg/kg, po BID administered via gavage for 3 days by ELISA relative to control; assay type: functional; conditions: C57BL/6, po, 72 h, time 3 day
[5] = In vivo inhibition of GOAT in C57BL/6 mouse assessed as reduction in ratio of AG to total-ghrelin at 0.1 mg/kg, po BID administered via gavage for 3 days by ELISA relative to control; assay type: functional; conditions: C57BL/6, po, 72 h, time 3 day
[6] = In vivo inhibition of GOAT in C57BL/6 mouse assessed as reduction in ratio of AG to total-ghrelin at 3 mg/kg, po BID administered via gavage for 3 days by ELISA relative to control; assay type: functional; conditions: C57BL/6, po, 72 h, time 3 day
[7] = In vivo inhibition of GOAT in C57BL/6 mouse assessed as reduction in ratio of AG to total-ghrelin at 0.3 mg/kg, po BID administered via gavage for 3 days by ELISA relative to control; assay type: functional; conditions: C57BL/6, po, 72 h, time 3 day
[8] = In vivo inhibition of GOAT in C57BL/6 mouse assessed as reduction in ratio of AG to total-ghrelin at 10 mg/kg, po BID administered via gavage for 3 days by ELISA relative to control; assay type: functional; conditions: C57BL/6, po, 72 h, time 3 day
[9] = molecular target: T1, Membrane-bound ghrelin O-acyltransferase MBOAT4; assay: Antagonist activity at mouse GOAT expressed in baculovirus infected sf9 insect cell membrane using ghrelin(1 to 5) pentapeptide as substrate preincubated for 5 mins followed by Palmitoyl-CoA and n-octynoyl-CoA addition and measured after 5 mins by amplex red/H2O2 reagent-based fluorescence method; assay type: cell membranes
[10] = In vivo inhibition of GOAT in C57BL/6 mouse assessed as decrease in plasma acylated ghrelin level at 3 mg/kg, po BID administered via gavage for 3 days by ELISA relative to control; assay type: functional; conditions: C57BL/6, po, 72 h, time 3 day
[11] = In vivo inhibition of GOAT in C57BL/6 mouse assessed as increase in unacylated-ghrelin level at 3 mg/kg, po BID administered via gavage for 3 days by ELISA relative to control; assay type: functional; conditions: time 3 day
[12] = In vivo inhibition of GOAT in C57BL/6 mouse assessed as decrease in plasma acylated ghrelin level at 0.3 mg/kg, po BID administered via gavage for 3 days by ELISA relative to control; assay type: functional; conditions: C57BL/6, po, 72 h, time 3 day
[13] = In vivo inhibition of GOAT in C57BL/6 mouse assessed as decrease in plasma acylated ghrelin level at 1 mg/kg, po BID administered via gavage for 3 days by ELISA relative to control; assay type: functional; conditions: C57BL/6, po, 72 h, time 3 day
[14] = In vivo inhibition of GOAT in C57BL/6 mouse assessed as increase in unacylated-ghrelin level at 10 mg/kg, po BID administered via gavage for 3 days by ELISA relative to control; assay type: functional; conditions: time 3 day
[15] = In vivo inhibition of GOAT in C57BL/6 mouse assessed as increase in unacylated-ghrelin level at 1 mg/kg, po BID administered via gavage for 3 days by ELISA relative to control; assay type: functional; conditions: time 3 day
[16] = In vivo inhibition of GOAT in C57BL/6 mouse assessed as increase in unacylated-ghrelin level at 0.3 mg/kg, po BID administered via gavage for 3 days by ELISA relative to control; assay type: functional; conditions: time 3 day
[17] = In vivo inhibition of GOAT in C57BL/6 mouse assessed as decrease in plasma acylated ghrelin level at 10 mg/kg, po BID administered via gavage for 3 days by ELISA relative to control; assay type: functional; conditions: C57BL/6, po, 72 h, time 3 day
[18] = molecular target: Growth hormone secretagogue receptor type 1 (Homo sapiens, UniProt Q92847); assay: Inhibition of GHSR-1A (unknown origin)
Chain of Growth hormone secretagogue receptor type 1 (Q92847 whole entry): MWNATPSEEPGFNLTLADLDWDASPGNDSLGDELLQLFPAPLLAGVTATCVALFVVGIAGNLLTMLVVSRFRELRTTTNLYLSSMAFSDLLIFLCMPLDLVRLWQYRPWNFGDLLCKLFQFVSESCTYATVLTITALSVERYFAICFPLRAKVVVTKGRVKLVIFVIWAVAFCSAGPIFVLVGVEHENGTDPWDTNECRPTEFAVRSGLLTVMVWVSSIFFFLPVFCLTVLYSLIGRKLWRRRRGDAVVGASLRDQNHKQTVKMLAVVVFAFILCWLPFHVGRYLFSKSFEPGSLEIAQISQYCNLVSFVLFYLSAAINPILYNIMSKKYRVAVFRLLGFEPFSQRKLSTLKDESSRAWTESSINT

[19] = molecular target: T2, Membrane-bound ghrelin O-acyltransferase MBOAT4; assay: Inhibition of GOAT (unknown origin)
[20] = molecular target: T2, Membrane-bound ghrelin O-acyltransferase MBOAT4; assay: Inhibition of human GOAT expressed in baculovirus infected sf9 insect cell membrane using GSSFLC-acrylodan and octanoyl-CoA as substrate preincubated for 30 mins followed by substrate addition and measured after 3 hrs by HPLC analysis; assay type: cell membranes
[21] = In vivo inhibition of GOAT in mouse model of HFHC-diet induced obesity assessed as reduction in acyl ghrelin level at 10 mg/kg, po administered once daily for 7 days relative to control; assay type: functional; conditions: 168 h, time 7 day
[22] = In vivo inhibition of GOAT in cynomolgus monkey assessed as reduction in plasma acyl ghrelin AUC (0 to 24 hrs) at 10 mg/kg, po administered as single dose measured after 15 mins to 24 hrs relative to control; assay type: functional; conditions: Macaca fascicularis, 0.25 h
[23] = molecular target: T2, Membrane-bound ghrelin O-acyltransferase MBOAT4; assay: Inhibition of human His-tagged GOAT expressed in baculovirus infected Sf9 cell membrane using biotinylated ghrelin peptide/octanoyl-CoA/palmitoyl CoA as substrate incubated for 80 mins by TR-FRET assay; assay type: cell membranes
[24] = molecular target: T2, Membrane-bound ghrelin O-acyltransferase MBOAT4; assay: Inhibition of human GOAT expressed in baculovirus infected sf9 insect cell microsomes using biotinylated des-acyl ghrelin and octanoyl-CoA as substrate incubated for 15 mins by HTRF assay; parameters: species or system Microsome
[25] = molecular target: T1, Membrane-bound ghrelin O-acyltransferase MBOAT4; assay: Inhibition of mouse GOAT expressed in baculovirus infected sf9 insect cell microsomes using biotinylated des-acyl ghrelin and octanoyl-CoA -CoA as substrate incubated for 15 mins by HTRF assay; parameters: species or system Microsome

Structure (SMILES): CCCCCCC[C@](C)(O)/C=C/[C@H](NC(=O)OCc1ccccc1)C(=O)OC
- IC50 [1]: 50 µM

Structure (SMILES): C[C@H](NC(=O)c1ccn(C)n1)C(=O)N1CCC(CCc2c(N)nc(N)nc2Cl)CC1
- inhibition in vivo at 18 mg/kg [2]: 86%
- IC50 [3]: 0.0689 µM

Structure (SMILES): CCCC[C@H]1C[C@H](C(=O)NC[C@H]2CCCN2C(=O)[C@@H](NC(=S)CNC)C(C)(C)C)C1
- IC50 [1]: 0.03 µM

Structure (SMILES): Cc1nc(C(F)(F)F)nc(N)c1CCC1CCN(C(=O)[C@H](C)NC(=O)c2ccnn2C)CC1
- inhibition in vivo at 1 mg/kg [4]: 79%
- inhibition in vivo at 0.1 mg/kg [5]: 57%
- inhibition in vivo at 3 mg/kg [6]: 82%
- inhibition in vivo at 0.3 mg/kg [7]: 62%
- inhibition in vivo at 10 mg/kg [8]: 82%

Structure (SMILES): CCCCCCCCN(C(C)=O)C(CNCc1ccccc1)c1ccc2cc(O)ccc2c1 (centres undefined)
- IC50 [9]: 13 µM

Structure (SMILES): C[C@H](NC(=O)C1CC1)C(=O)N1CCC(CCc2c(N)nc(N)nc2Cl)CC1
- inhibition in vivo at 3 mg/kg [10]: 45%
- fold change (FC) [11]: 2.53
- inhibition in vivo at 0.3 mg/kg [12]: -1%
- inhibition in vivo at 1 mg/kg [4]: 54%
- inhibition in vivo at 3 mg/kg [6]: 71%
- inhibition in vivo at 1 mg/kg [13]: 5%
- fold change (FC) [14]: 2.9
- fold change (FC) [15]: 2.82
- inhibition in vivo at 0.3 mg/kg [7]: 39%
- fold change (FC) [16]: 2.24
- IC50 [3]: 0.192 µM
- inhibition in vivo at 10 mg/kg [17]: 48%
- inhibition in vivo at 10 mg/kg [8]: 77%

Structure (SMILES): CCCCCCC[C@H](O)/C=C/[C@H](NC(=O)OCc1ccccc1)C(=O)OC
- IC50 [1]: 90 µM

Structure (SMILES): CCCCCCCC(=O)NC[C@H](NC(=O)[C@H](CO)NC(=O)CN)C(=O)N[C@@H](Cc1ccccc1)C(=O)N[C@H](CN)CC(C)C (H-GS[Dap](Octanoyl)F-X1)
- IC50 [1]: 1 µM

Structure (SMILES): C[C@@H](O)[C@H](NC(=O)[C@@H]1CCCN1C(=O)[C@H](CO)NC(=O)[C@H](Cc1cccc2ccccc12)NC(=O)[C@H](CN)NC(=O)[C@H](CO)NC(=O)CN)C(N)=O (HELM PEPTIDE1{G.S.[NC[C@H](N[*:1])C(=O)[*:2]].[O=C([C@H](Cc1cccc2ccccc12)N[*:1])[*:2]].S.P.T.[am]}$$$$V2.0)
- IC50 [18]: 100 µM
- IC50 [19]: 0.006 µM

Structure (SMILES): CC1(C)C(=O)C(C#N)=C[C@]2(C)[C@H]3CC[C@]4(C)CCC[C@H]4[C@@H]3CC[C@@H]12
- IC50 [20]: 8 µM

Structure (SMILES): O=C(O)Cc1csc2cc(O[C@H]3CCc4ncccc43)cc(Cl)c12
- inhibition in vivo at 10 mg/kg [21]: 28%
- inhibition in vivo at 10 mg/kg [22]: 51%
- IC50 [23]: < 0.05 µM

Structure (SMILES): CCCCCCCC(=O)OC[C@H](OC(=O)[C@H](CO)NC(=O)CN)C(=O)N[C@@H](Cc1ccccc1)C(=O)N[C@@H](CC(C)C)C(=O)N[C@@H](CO)C(=O)N1CCC[C@H]1C(=O)N[C@@H](CCC(=O)O)C(=O)N[C@@H](Cc1cnc[nH]1)C(=O)N[C@@H](CCC(N)=O)C(=O)N[C@@H](CCCCN)C(=O)N[C@@H](C)C(=O)N[C@@H](CCC(N)=O)C(=O)N[C@@H](CCC(N)=O)C(=O)N[C@@H](CCCNC(=N)N)C(=O)N[C@@H](CCCCN)C(=O)N[C@@H](CCC(=O)O)C(=O)N[C@@H](CO)C(=O)N[C@@H](CCCCN)C(=O)N[C@@H](CCCCN)C(=O)N1CCC[C@H]1C(=O)N1CCC[C@H]1C(=O)N[C@@H](C)C(=O)N[C@@H](CCCCN)C(=O)N[C@@H](CC(C)C)C(=O)N[C@@H](CCC(N)=O)C(=O)N1CCC[C@H]1C(=O)N[C@@H](CCCNC(=N)N)C(=O)O
- IC50 [1]: 7 µM

Structure (SMILES): COC(=O)N[C@@H](C)C(=O)N1CCC(CCc2c(N)nc(C)nc2Cl)CC1
- inhibition in vivo at 3 mg/kg [10]: 66%
- fold change (FC) [11]: 2.9
- inhibition in vivo at 3 mg/kg [6]: 82%

Structure (SMILES): CCCCCCN(C(C)=O)C(CNCc1ccccc1)c1ccc2cc(O)ccc2c1 (centres undefined)
- IC50 [9]: 7.5 µM

Structure (SMILES): CCCCCCCC(=O)OC[C@H](NC(=O)[C@H](CO)NC(=O)CN)C(=O)N[C@@H](Cc1ccccc1)C(=O)N[C@H](CN)CC(C)C (H-GSS(Octanoyl)F-X1)
- IC50 [1]: 45 µM

Structure (SMILES): O=C(O)c1ccc2oc(SCc3ccc(Cl)cc3Cl)nc2c1
- IC50 [24]: 0.0086 µM
- IC50 [25]: 0.0033 µM
